The source of these data is patent US10758609B2, “Cross-reactive T-cell epitopes of HIV, SIV, and FIV for vaccines in humans and cats” (priority 2015, dated 2020).

Residues, ends and D or L forms follow the SMILES beside them.

Data set [1] concerns CD3^+CD8^+ T cells from HIV^+ subjects. Kind of data set: CFSE-based CD3+CD8+ T-cell proliferation, HIV+ human subjects. The protocol:
(§1) The overlapping peptide pools of FIV and HIV-1 structural and enzyme proteins were used to stimulate the […] (PBMC) and the T cells from HIV^+ subjects as previously described for epitope mapping of HIV-1 and FIV p24 and reverse transcriptase (RT) (Sanou et al., 2013; Roff et al., 2015). The individual peptides in those peptide pools with positive responses to either interferon-γ (IFNγ) production and/or T-cell proliferation were determined with IFNγ ELISpot analysis and CFSE-based CD3^+CD4^+ and CD3^+CD8^+ T-cell proliferation analyses followed by the FACS-based intracellular staining (ICS) for cytolysin (perforin) and cytotoxin (granzyme A [GrzA] and GrzB) (Sanou et al., 2013; Roff et al., 2015). Besides viral p24 and RT proteins, the identical approach was used to identify anti-HIV/FIV T-cell epitopes on viral matrix (MA), nucleocapsid (NC), protease (PR), RNAase, integrase (IN), surface envelope (SU Env), and transmembrane envelope (TM Env) (FIG. 12).
(§2) Since our goal is to develop HIV vaccine for human use, the HIV peptides (Table 10) counterpart of the cross-reactive FIV peptides shown in Table 9 were tested with PBMC and T cells from HIV^+ subjects. The immune functions analyzed were human IFNγ production by ELISpot, cytolysin/cytotoxin production by ICS, and CFSE-based proliferation of CD3^+CD4^+ and CD3^+CD8^+ T cells from HIV^+ subjects (Table 10, the first set of results). In addition, the Los Alamos National Laboratories (LANL) database was used to identify the HLA allele(s) of the HIV epitope sequence with CTL activity that can exist within the sequence of the conserved counterpart HIV peptide (Table 9, LANL CTL). The bold HLA class-I supertypes and the bold 2-digit alleles are those on the “Optimal CD8^+ CTL Epitopes” list and those without bold are alleles for potential CTL epitope. […] The HLA class II such as HLA-DRB1 has yet to be fully classified into supertypes, and therefore the 4-digit resolution nomenclatures for the HLA-DRB1 alleles are shown.
(§3) The threshold for positive IFNγ and IL2 ELISpot responses is ≥50 spot-forming units (SFU) per 10^6 PBMC. The threshold for CFSE-based CD4^+ and CD8^+ T-cell proliferation is ≥2% CD4^+ T-cell CFSE^low or CD8^+ T-cell CFSE^low. The threshold of FACS-based intracellular cytokine staining (ICS) is ≥0.2%. […] The nine FIV peptides in black were used in the current MAP vaccine trial, whereas the 13 peptides in blue were not used. […] The MAPs and their corresponding peptide(s) were also tested for their ability to enhance or suppress in vitro FIV infection of feline PBMC (E/S of peptides and E/S of MAP).
(§4) The counterpart HIV-1 peptides of the FIV peptides were also tested for immunogenicity using PBMC and T cells from HIV^+ human subjects. […] The HRT7-1 and HRT7-2 were also tested with cells from HIV^+ subjects on ART. The threshold for positive IFNγ ELISpot response is ≥75 spot-forming units (SFU) per 10^6 PBMC. The threshold for CFSE-based CD4^+ (CD4^+ T) and CD8^+ (CD8^+ T) T-cell proliferation is ≥2% CD4^+ T-cell CFSE^low or CD8^+ T-cell CFSE^low. The threshold of intracellular cytokine staining (ICS) of FACS-based cytolysin (perforin) and cytotoxins (granzymes A and B) in CD4^+ T cells (CyCD4) and CD8^+ T cells (CyCD8) is ≥0.2%. […] The nine HIV-1 peptides in black are the counterpart FIV peptides used in the current MAP vaccine trial, whereas the 13 peptides in blue were not.

Data set [2] concerns CD8^+ T cells from HIV^+ subjects. Kind of data set: FACS-based intracellular staining (ICS) for cytolysin (perforin) and cytotoxins (GrzA, GrzB) in CD8+ T cells. As to conditions: HIV+ human subjects; for CyCD8: CD8+ T-cell cytolysin/cytotoxins (perforin, GrzA & B), frequency of responders: HIV-1 epitope peptide, threshold ≥0.2%. The protocol:
as §1, §2, §3, §4

Data set [3] relates to CD4^+ T cells from HIV^+ subjects. The following applies: HIV+ human subjects; for CyCD4: CD4+ T-cell cytolysin/cytotoxins (perforin, GrzA & B), frequency of responders: HIV-1 epitope peptide, threshold ≥0.2%; for CyCD4 (cytolysin and cytotoxin production of CD4+ T cells), frequency of responders: HIV-1 peptides. The protocol: as §1, §2, §4
Data set [4] deals with CD3^+CD4^+ T cells from HIV^+ subjects. Kind of data set: CFSE-based CD3+CD4+ T-cell proliferation, HIV+ human subjects. The protocol:
as §1, §2, §3, §4

A further data set relates to PBMC from HIV^+ subjects. Kind of data set: IFNγ ELISpot of PBMC from HIV+ human subjects. The data set is classed as cell-based. The protocol: as §1, §2
In addition, these peptides were also analyzed for IFNγ production, CD4^+ and CD8^+ T-cell proliferation, and cytolysin (perforin) and cytotoxin (granzyme A (GrzA) and GrzB)) mRNA production of PBMC or T cells from 8-30 HIV^+ human subjects. The frequency of responders is based on the individual responses of the vaccinated cats or HIV^+ human subjects after subtraction of the average of the responses of PBMC or T cells from 6-8 non-vaccinated cats or 8-20 HIV-negative human subjects.
as §3
The counterpart HIV-1 peptides of the FIV peptides were also tested for immunogenicity using PBMC and T cells from HIV^+ human subjects. […] The HRT7-1 and HRT7-2 were also tested with cells from HIV^+ subjects on ART. The threshold for positive IFNγ ELISpot response is ≥75 spot-forming units (SFU) per 10^6 PBMC. The threshold for CFSE-based CD4^+ (CD4^+ T) and CD8^+ (CD8^+ T) T-cell proliferation is ≥2% CD4^+ T-cell CFSE^low or CD8^+ T-cell CFSE^low. The threshold of intracellular cytokine staining (ICS) of FACS-based cytolysin (perforin) and cytotoxins (granzymes A and B) in CD4^+ T cells (CyCD4) and CD8^+ T cells (CyCD8) is ≥0.2%.

Where [5] appears, read: HIV-1 epitope peptide, threshold ≥2% CFSElow.

Turning to KKDSTKWRKLVDFRE [HRT3-3], the “CD8+ T proliferation, frequency of responders” value in data set [1] (setting [5]) is reported as “+++ (40.1%-54% (+++))”. Further, in data set [1] (HIV-1 peptides), the “CD8^+ T (T-cell proliferation), frequency of responders” value is “+++ (40.1%-54% (+++))”. Also, the “CyCD8: CD8+ T-cell cytolysin/cytotoxins (perforin, GrzA & B), frequency of responders” value (“CyCD8: CD8+ T-cell cytolysin/cytotoxins” below) in data set [2] is recorded as “++++ (>54% (++++))”. Further, in data set [2] (HIV-1 peptides), the “CyCD7, frequency of responders” value is recorded as “++++ (>54% (++++))”. Also, in data set [3], the “CyCD4: CD4+ T-cell cytolysin/cytotoxins (perforin, GrzA & B), frequency of responders” value (“CyCD4: CD4+ T-cell cytolysin/cytotoxins” below) is “++++ (>54% (++++))”; the “CyCD4 (cytolysin and cytotoxin production of CD4+ T cells), frequency of responders” value is recorded as “++++ (>54% (++++))”. Also, the “CD4+ T proliferation, frequency of responders” value in data set [4] (setting [5]) is reported as “++ (25.1%-40% (++))”. For the same molecule, the “CDC4^+ T (T-cell proliferation), frequency of responders” value in data set [4] (HIV-1 peptides) is “++ (25.1%-40% (++))”. In addition, the “IFNγ, frequency of responders” value in the data set on PBMC from HIV^+ subjects (HIV-1 epitope peptide, threshold ≥75 SFU per 10^6 PBMC) is “+ (12.5%-25% (+))”. Moreover, the “IFNγ, frequency of responders” value with PBMC from HIV^+ subjects (HIV-1 peptides) was “+ (12.5%-25% (+))”.

Regarding `CC[C@H](C)[C@H](NC(=O)[C@H](CC(=O)O)NC(=O)[C@@H](NC(=O)[C@H](C)NC(=O)[C@@H](NC(=O)[C@@H](NC(=O)[C@H](CC(=O)O)NC(=O)[C@@H](NC(=O)[C@@H](NC(=O)[C@H](CCCNC(=N)N)NC(=O)[C@H](CCC(=O)O)NC(=O)CN)[C@@H](C)CC)C(C)C)[C@@H](C)CC)[C@@H](C)CC)[C@@H](C)O)C(=O)N[C@@H](CCC(N)=O)C(=O)N[C@H](C(=O)N[C@@H](CCCCN)C(=O)O)[C@@H](C)O` [HIN7-1] (H-GERIVDIIATDIQTK-OH; N-terminus and C-terminus assumed), in data set [2], the “CyCD8: CD8+ T-cell cytolysin/cytotoxins” value is given as “+ (12.5%-25% (+))”. In addition, in data set [3], the “CyCD4: CD4+ T-cell cytolysin/cytotoxins” value is given as “− (0%-1.4% (−))”; the “CyCD4 (cytolysin and cytotoxin production of CD4+ T cells), frequency of responders” value is recorded as “— (0%-1.4%(—))”.

Consider `CC[C@H](C)[C@H](NC(=O)[C@H](CCCNC(=N)N)NC(=O)[C@@H](N)CC(C)C)C(=O)N[C@H](C(=O)N[C@@H](Cc1ccccc1)C(=O)N[C@@H](C)C(=O)N[C@H](C(=O)N[C@@H](CC(C)C)C(=O)N[C@@H](CO)C(=O)N[C@H](C(=O)N[C@H](C(=O)N[C@@H](CC(N)=O)C(=O)N[C@@H](CCCNC(=N)N)C(=O)N[C@H](C(=O)N[C@@H](CCCNC(=N)N)C(=O)N[C@@H](CCC(N)=O)C(=O)O)C(C)C)C(C)C)[C@@H](C)CC)C(C)C)C(C)C` [HTM8(20)] (H-LRIVFAVLSIVNRVRQ-OH; N-terminus and C-terminus assumed), for which, in data set [2], the “CyCD8: CD8+ T-cell cytolysin/cytotoxins” value was “− (0%-1.4% (−))”. Moreover, the “CyCD4: CD4+ T-cell cytolysin/cytotoxins” value in data set [3] was “− (0%-1.4% (−))”.

Consider `CSCC[C@H](NC(=O)[C@H](Cc1c[nH]c2ccccc12)NC(=O)[C@H](CC(N)=O)NC(=O)[C@H](CCCCN)NC(=O)[C@@H](NC(=O)[C@H](CCC(=O)O)NC(=O)[C@H](CCC(N)=O)NC(=O)[C@H](CO)NC(=O)[C@H](C)N)C(C)C)C(=O)N[C@H](C(=O)N[C@@H](CCC(=O)O)C(=O)N[C@H](C(=O)N[C@@H](CC(C)C)C(=O)N[C@@H](CC(C)C)C(=O)N[C@H](C(=O)O)C(C)C)[C@@H](C)O)[C@@H](C)O` [Hp14-3 (15-2)] (H-ASQEVKNWMTETLLV-OH), for which the “CyCD8: CD8+ T-cell cytolysin/cytotoxins” value in data set [2] is on record as “++++ (>54% (++++))”. Moreover, the “CyCD4: CD4+ T-cell cytolysin/cytotoxins” value in data set [3] is on record as “++++ (>54% (++++))”.
